Values joined by “and” are separate entries in the source; they are usually repeats but may differ in a detail not shown here. Equal values may be shown once. Read-outs that look alike come from different tables or passages of the source.
Experiments:
DCN1 = DCN1 (Homo sapiens, UniProt Q96GG9); assay: High-resolution LC-tandem mass spectrometry of tryptic peptides; details: for Modifications (DI-548 adduct on DCN1 tryptic peptide): B2 Sequest HT (DI-548) sample, confidence High, not found in Apo sample
Sequence of DCN1 (Q96GG9 58-259 limits assumed): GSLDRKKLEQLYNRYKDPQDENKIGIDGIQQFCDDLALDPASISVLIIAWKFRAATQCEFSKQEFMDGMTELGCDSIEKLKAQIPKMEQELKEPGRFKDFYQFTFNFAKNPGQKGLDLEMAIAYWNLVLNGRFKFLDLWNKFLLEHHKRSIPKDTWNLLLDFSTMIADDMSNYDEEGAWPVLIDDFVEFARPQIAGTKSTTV
Method: Equal amounts of proteins (10 μg) were denatured in 8 M urea. Cysteines were reduced with 10 mM DTT at 45 °C for 30 min and alkylated using 50 mM chloroacetamide (RT, 30 min). Upon dilution of urea to <1.2 M, digestion with 250 ng of sequencing grade, modified trypsin (Promega) was carried out overnight at 37 °C. Reaction was terminated by acidification with trifluoroacetic acid (0.1% v/v) and peptides were purified using SepPak C18 cartridge following the manufacturer’s protocol (Waters Corp). An aliquot of the resulting peptides (~2 µg) was resolved on a nanocapillary reverse phase column (Acclaim PepMap C18, 2 μm, 50 cm, Thermo Fisher Scientific) using 0.1% formic acid/acetonitrile gradient at 300 nL/min and directly introduced in to Q Exactive HF mass spectrometer (Thermo Fisher Scientific, San Jose, CA). MS1 scans were acquired at 60 K resolution (AGC target = 3e^6, max IT = 50 ms). Data-dependent high-energy C-trap dissociation MS/MS spectra were acquired for the 20 most abundant ions (Top20) following each MS1 scan (15 K resolution; AGC target = 1e^5; relative CE ~ 28%). Proteins were identified by searching the data against restricted database containing DCN1 protein sequence and common contaminants using Sequest HT (Proteome Discoverer v2.4, Thermo Fisher Scientific). Search parameters included MS1 mass tolerance of 10 ppm and fragment tolerance of 0.02 Da; two missed cleavages were allowed; carbamidomethylation (+57.02146 Da) and DI-1548 adduct (+510.2665 Da) of cysteine, and oxidation of methionine, deamidation of asparagine and glutamine were considered as potential modifications. False discovery rate (FDR) was determined using target decoy validator and proteins/peptides with an FDR of ≤1% were retained for further analysis. The DI-1548 modified peptide PSMs were manually verified.

KYSE70 cells = assay: Cell viability assay (WST-8), KYSE70; type: cell-based, human; details: for cell viability relative to control: replicates
Method: (§1) Cell viability assay was performed as previously described. The effect of DCN1 inhibitors on cell growth was evaluated by a WST-8 [2-(2-methoxy-4-nitrophenyl)-3-(4-nitrophenyl)-5-(2,4-disulfophenyl)-2H-tetrazolium, monosodium salt assay (Dojindo Molecular Technologies, Inc). Cells (2000–3000 cells in each well) were seeded in 96-well tissue culture plates in medium (100 μL) and treated with serial dilution of DCN1 inhibitors for 3 days. At the end of incubation, WST-8 dye (20 μL) was added to each well and incubated for 1–3 h, then the absorbance was measured in a microplate reader (Molecular Devices) at 450 nm. Cell growth inhibition was evaluated as the ratio of the absorbance of the sample to that of the control. The values were inserted into Prism software, and the curves and the EC50 values were produced by Prism software.

[1] = Cell viability assay (WST-8), KYSE70; type: cell-based, human; details: human, KYSE70 cells, replicates, read-out: cell viability relative to control
Method: as §1

[2] = test system: APAP-induced liver injury; assay: APAP-induced liver injury: ROS assay in liver tissue; type: in vivo, mouse
Method: The in vivo studies were performed under animal protocols (PRO00007499) and (PRO00006638) approved by the Institutional Animal Care & Use Committee of the University of Michigan, in accordance with the recommendations in the Guide for the Care and Use of Laboratory Animals of the National Institutes of Health. C57BL/6 WT mice (~8 weeks, male, normal chow) were purchased from the Jackson Laboratory and randomly divided into eight groups (8–9 mice per group) treated (IP) as follows: phosphate-buffered saline vehicle once per day for 3 days (G1), APAP alone a single dose at 400 mg/kg on day 1 (G2), DI-1859 alone 25 mg/kg once per day for 3 days (G3), DI-1859 alone 50 mg/kg once per day for 3 days (G4), pretreatment (1 day before the APAP administration) with DI-1859 at 25 mg/kg once per day for 3 days followed with APAP at 400 mg/kg on day (G5), pretreatment (1 day before the APAP administration) with DI-1859 at 50 mg/kg once per day for 3 days followed with APAP at 400 mg/kg on day (G6), APAP a single dose at 400 mg/kg (3 h before the first DI-1859 administration) followed with DI-1859 at 25 mg/Kg once per day for 3 days (G7), and APAP a single dose at 400 mg/kg (3 h before the first DI-1859 administration) followed with DI-1859 at 50 mg/Kg once per day for 3 days (G8).
To induce acute liver injury, animals received PBS or APAP (400 mg/kg, sigma, A7085) through I.P. injection at 12 p.m. and were sacrificed 48 h afterward. To examine the protective effect of DI-1859 (groups 5 and 6), animals were I.P. injected with compound for 3 consecutive days (9 a.m. on each day, starting 1 day before APAP administration). To examine the restorative effect of DI-1859 (groups 7 and 8), animals were I.P. injected with compound 3 h after APAP administration followed by two additional treatments (9 a.m. on the next 2 days). Body weight and blood glucose level measurement, along with blood sample collection, were performed at 12 p.m. on each day.
Liver samples were homogenized in a lysis buffer and mixed with a dichlorofluorescein diacetate fluorescent probe (DCF, Sigma, D6883) to a final probe concentration of 5 µM for 1 h at 37 °C. DCF fluorescence was measured using a BioTek Synergy 2 Multi-Mode Microplate Reader (485 nm excitation and 527 nm emission).

[3] = G3: DI-1859 25 mg/kg, qD for 3 days
[4] = G4: DI-1859 50 mg/kg, qD for 3 days
[5] = G5: DI-1859 25 mg/kg qD for 3 days, APAP 400 mg/kg 3 h after the second dose
[6] = G6: DI-1859 50 mg/kg qD for 3 days, APAP 400 mg/kg 3 h after the second dose
[7] = G7: APAP 400 mg/kg, then DI-1859 25 mg/kg 3 h after APAP and on day 2 and 3
[8] = G8: APAP 400 mg/kg, then DI-1859 50 mg/kg 3 h after APAP and on day 2 and 3

Structure (SMILES): C=C(CN1CCOCC1)C(=O)NC[C@@H](NC(=O)[C@H](Cc1nc2ccc(C(C)C)cc2s1)NC(=O)CC)C1CCCCC1 [DI-1548]
- Modifications (DI-548 adduct on DCN1 tryptic peptide) (DCN1; peptide [R].AATQCEFSK.[Q], DCN_1 [77-85]): 1xDI-548_Haibin [C5]
- Modifications (DI-548 adduct on DCN1 tryptic peptide) (DCN1; peptide [R].AATQCEFSKQEFMDGMTELGCDSIEK.[L], DCN_1 [77-102], 1xCarbamidomethyl [C21] and 1xDeamidated [Q4]): 1xCarbamidomethyl [C21]; 1xDeamidated [Q4]; 1xDI-548_Haibin [C5]
- Modifications (DI-548 adduct on DCN1 tryptic peptide) (DCN1; peptide [R].AATQCEFSKQEFMDGMTELGCDSIEK.[L], DCN_1 [77-102], 1xCarbamidomethyl [C21]): 1xCarbamidomethyl [C21]; 1xDI-548_Haibin [C5]
- residue of DCN1 modified (DCN1; tryptic digested peptides): forms covalent bond with Cys115
- EC50 (KYSE70 cells; Homo sapiens, KYSE-70, 72 h, cell line assigned from panel order, read-out: EC50, cell growth inhibition): > 1000 nM
- cell viability relative to control (KYSE70 cells; conc 10, 72 h): 103.349 and 104.463
- cell viability relative to control (KYSE70 cells; conc 30, 72 h): 98.066 and 96.6942
- cell viability relative to control (KYSE70 cells; conc 100, 72 h): 94.5283 and 108.512
- cell viability relative to control (KYSE70 cells; conc 300, 72 h): 88.5377 and 82.0661
- cell viability relative to control (KYSE70 cells; conc 1000, 72 h): 64.6226 and 79.9057 and 54.5868
- viability at 72 h ([1]; conc 10, 72 h): 99.4%
- viability at 72 h ([1]; conc 30, 72 h): 104%
- viability at 72 h ([1]; conc 100, 72 h): 99.4%
- viability at 72 h ([1]; conc 300, 72 h): 94.1%

Structure (SMILES): C=C(CN(C)C)C(=O)NC[C@@H](NC(=O)[C@H](Cc1nc2ccc(C(C)C)cc2s1)NC(=O)CC)C1CCCCC1 [DI-1859]
- ROS level in mouse liver tissue, mean [2, 3]: 7.034 A.U./ug
- ROS level normalised to the mean of G1 (vehicle), mean [2, 3]: 0.9296
- ROS level in mouse liver tissue, mean [2, 4]: 7.229 A.U./ug
- ROS level normalised to the mean of G1 (vehicle), mean [2, 4]: 0.9554
- ROS level in mouse liver tissue, mean [2, 5]: 10.9296 A.U./ug
- ROS level normalised to the mean of G1 (vehicle), mean [2, 5]: 1.445
- ROS level in mouse liver tissue, mean [2, 6]: 8.337 A.U./ug
- ROS level normalised to the mean of G1 (vehicle), mean [2, 6]: 1.102
- ROS level in mouse liver tissue, mean [2, 7]: 10.4847 A.U./ug
- ROS level normalised to the mean of G1 (vehicle), mean [2, 7]: 1.3857
- ROS level in mouse liver tissue, mean [2, 8]: 10.3541 A.U./ug
- ROS level normalised to the mean of G1 (vehicle), mean [2, 8]: 1.368
- effect on the level of reactive oxygen species (ROS) ([2]; prevention and treatment settings): effectively reduced the level of reactive oxygen species
